Assays:
[1] = system: NIH 3T3 fibroblasts transfected with H-Ras(61 L) [H-Ras-F]; experiment: Soft agar anchorage-independent growth, H-Ras-F cells; format: cell-based; details: soft agar, 2 weeks; read-out: Mean IC50 (±S.E.) H-Ras-F
Description: (§1) Presumably, the non-polar alcohols pass through the cell membrane and are then diphosphorylated by an as yet uncharacterized kinase to FPP or GGPP.
(§2) The 3-substituted analogs were evaluated as inhibitors of the growth of ras-transformed cells by comparing their relative degree of activity against an isogenic panel of transformed cell lines, comprised of NIH 3T3 fibroblasts transfected with either H-Ras(61 L) [H-Ras-F], H-Ras(61 L)CVLL [H-Ras-GG], or a transforming form of c-raf [Raf]. The H-Ras-F, H-Ras-GG, and raf transformed NIH3T3 cell lines have been previously described in Cox, et al., Molecular and Cellular Biology, Vol. 12, No. 6, pages 2606-2615 (1992). The cells were grown prior to plating in Dulbecco's modified Eagle medium supplemented with 10% calf serum and 1% antibiotic/antimycotic at 37° C. and 10% CO2. Experiments were carried out in 6-well dishes in a two layer agar system (0.6% bottom layer and 0.3% top layer). Cells were incorporated into the top layer along with varying concentrations of the compound prepared in ethanol. Compound addition occurred only at the time the cells were seeded. Subsequent incubation was at 37° C. with 10% CO2 for 2 weeks. Colonies were stained with 0.5 ml/well of 1 mg/ml p-iodonitrotetrazolium violet (Sigma) for 24 hours prior to quantitation by image analysis.

[2] = system: H-Ras-GG in H-Ras-GG cells; experiment: Subcellular fractionation / Western blot of Ras in lovastatin-treated H-Ras-GG cells; format: cell-based
Description: H-Ras-F (A) or H-Ras-GG (B) cells were treated with 25 μM lovastatin for 24 h after which the indicated FPP or GGPP analogs (resuspended in media) were added directly to the cell media. Following an additional 24 h incubation period, the cells were harvested, lysed and the membranes (M) separated from the cytosol (C). After solubilization of the membrane fraction, Ras protein was immunoprecipitated from both the membrane and cytosolic fractions by the addition of the Y13-259 antibody (OP04 from Oncogene Science). The presence of Ras protein in each fraction was analyzed by Western transfer techniques. Incubation with the primary antibody (pan-ras Ab-2 from Oncogene Science) and an anti-mouse HRP conjugate secondary antibody (Amersham) was employed for detection of the ras protein. Blots were developed using Enhanced Chemiluminescence techniques (Amersham). The technique is described in detail by Scholten, et al., Bioorg. Med. Chem., Vol. 4, pages 1537-1543 (1992).
The selectivity and mechanism of the observed cell growth inhibition was further probed by studying the effects of the 3-vinyl and 3-allyl GGPP analogs on the subcellular distribution of the geranylgeranylated protein variant in H-Ras-GG cells in a manner similar to that described for 3-vFPP and 3-alFPP. The Western blot is shown on FIG. 8. With H-Ras-GG cells, as with H-Ras-F cells, blockage of the mevalonate pathway results in a shift in the subcellular location of the Ras protein from the membrane to the cytosol.

[3] = system: NIH 3T3 fibroblasts transfected with H-Ras(61 L)CVLL [H-Ras-GG]; experiment: Soft agar anchorage-independent growth, H-Ras-GG cells; format: cell-based; details: 2 weeks, read-out: Mean IC50 (±S.E.) H-Ras-GG
Description: as §1, §2

[4] = system: NIH 3T3 fibroblasts transfected with a transforming form of c-raf [Raf]; experiment: Soft agar anchorage-independent growth, Raf cells; format: cell-based; details: 2 weeks, mean of two tests
Description: as §1, §2

[5] = system: H-Ras-F cells; experiment: Proliferation of H-Ras-F cells (control experiments); format: cell-based
[6] = system: HPAC (human pancreatic adenocarcinoma cells); experiment: Proliferation of HPAC cells, Trypan Blue exclusion; format: cell-based; details: 48 hours
Description: The malignant human cell line HPAC (human pancreatic adenocarcinoma cells) was used in this study. The cells were seeded at a concentration of 2×10^5/ml in 24 well culture plate (Costar, Cambridge, Mass). […] Varying amounts of the stock solutions were then used to treat the HPAC cells. The final concentration of the farnesol analogs in the culture plate wells ranged from 0 nM (ethanol-treated control) to 500 nM. The plate was then incubated at 37° C. under a 5% CO2-humidified atmosphere for 48 hours. The total viable cells from each well were determined by Trypan Blue (0.4%) exclusion (Gibco, N.Y.) followed by cell counting.

[7] = system: H-Ras-F cells; experiment: Incorporation of radiolabel into proteins of H-Ras-F cells; format: cell-based; details: 5 μM, 18 h, lovastatin-treated H-Ras-F cells
Description: H-Ras-F cells were treated with 25 μM lovastatin for 24 h after which the following were added directly to four samples of the cell media: (1) control-untreated, (2) 3-vinyl-1-[^3H]-farnesol (5 μM, 1.34 μCi/ml), (3) 1-[^3H]-FPP (3 μM, 50 μCi/ml; Amersham), and (4) 1-[^3H]-farnesol (3 μM, 50 μCi/ml; American Radiolabeled Chemicals). […] After drying, the membranes were sprayed with En^3Hance (Amersham) and exposed to film (Hyperfilm MP, Amersham) for a period of time prior to developing (4 days for 1-[^3H]-FPP and 1-[^3H]-farnesol) and 28 days for 3-vinyl-1-[^3H]-farnesol). The exposed films are shown on FIG. 8 where the control and radioactive bands are designated as indicated above.

[8] = system: H-Ras-GG cells; experiment: Cell morphology of lovastatin-treated H-Ras-GG cells; format: cell-based; details: 25 μM lovastatin 24 h, then analog 24 h
Description: (§3) It has been well established that levels of lovastatin that completely block the mevalonate pathway result in cell cycle blockade, significant cytotoxicity, and a sharp change in cell appearance to a rounded morphology. The effects of lovastatin on the cell morphology of H-Ras-F and H-Ras-GG cells treated with FPP, GGPP, 3-vFPP, 3-vGGPP, 3-alFPP, and 3-alGGPP were photographed and the results are shown on FIG. 9 (H-Ras-F) and 8 (H-Ras-GG), respectively. The H-Ras-F and H-Ras-GG cells were grown in six-well plates to 70-80% confluence. After treating the cells with lovastatin (25 μM) for 24 hour, the indicated FPP or GGPP analogs (re-suspended in media) were added directly to the cell media. Photographs were taken after an additional 24 hour incubation period.

[9] = biological target: recombinant mFTase (affinity purified rat FPTase) (Rattus norvegicus, UniProt Q02293+Q04631); experiment: FTase scintillation proximity assay; format: biochemical; details: for IC50: recombinant mFTase, tritiated FPP 0.12 μM, peptide 0.1 μM; for FTase/GGTase: selectivity mFTase against mGGTase I
Description: (§4) The method is described in detail in Yokama, et al., J. Biol. Chem., Vol. 272, No. 7, pages 3944-3952 (February 1997). The FTase, tritiated FPP, and the peptide were incubated at 37° C. for 30 minutes in a buffer. After incubation, a stop reagent and streptavidin beads (Amersham) were added. The radioactive product was counted on a Wallac Microbeta 1450 scintillation counter. The kinetic fits were derived from a nonlinear least squares computer fit of the data. The Ki values were determined using the same assay system with varying concentrations of tritiated FPP.

[10] = biological target: recombinant mGGTase I (Homo sapiens, UniProt P49354+P53609); experiment: GGTase I scintillation proximity assay; format: biochemical; details: tritiated GGPP
Description: as §4
GGTase I values were determined in a similar manner using recombinant mGGTase I, tritiated GGPP, and the peptide Biotin-Aha-Thr-Lys-Cys-Val-Ile-Leu-OH.

[11] = system: H-Ras-F cells; experiment: Cell morphology of lovastatin-treated H-Ras-F cells; format: cell-based; details: 25 μM lovastatin 24 h, then analog 24 h
Description: as §3

C=C/C(=C\CO)CC/C=C(\C)CC/C=C(\C)CCC=C(C)C [3-vinyl Geranylgeraniol, 3-Vinyl-7,11,15-trimethylhexadeca-2(Z),6(E),10(E),14-tetraen-1-ol]
IC50 [1]: 18 ± 4.1 µM
Protein geranylgeranylation in cells ([2]; summary statement): restores protein geranylgeranylation in cells
IC50 [3]: 13.9 ± 2.3 µM
IC50 [4]: 5.6 µM

CC(C)=CCCC(C)=CCCC(C)=CCO [farnesol, reference compound]
Effect on proliferation of H-Ras-F cells ([5]; 30 μM, data not shown): little effect
Effect on HPAC cells at 500 nM [6]: no effect

[3H]C(O)C=C(C=C)CCC=C(C)CCC=C(C)C (centres unmarked) [3-vinyl-1-[^3H]-farnesol]
Radiolabel incorporation into protein bands [7]: the radiolabel migrates with the same protein bands as seen when cells are treated with tritiated farnesol and FPP

3-vinyl geranylgeranyl diphosphate [Compound 3-vGGPP]
Membrane localization of H-Ras-GG ([2]; H-Ras-GG cells, lovastatin-treated): resulted in restoration of the membrane localization of H-Ras-GG
Restoration of flattened morphology of lovastatin-treated H-Ras-GG cells [8]: completely restore
IC50 [9]: 0.715 µM
FTase/GGTase [9]: 4.3
IC50 [10]: 3.05 µM
Reversal of rounded morphology of lovastatin-treated H-Ras-F cells [11]: restore the flattened morphology of cells

C=CC/C(=C\COP(=O)(O)OP(=O)(O)O)CC/C=C(\C)CC/C=C(\C)CCC=C(C)C [Compound 3-alGGPP, 3-Allyl-7,11,15-trimethylhexadeca-2(Z),6(E),10(E),14-tetraene diphosphate]
Restoration of flattened morphology of lovastatin-treated H-Ras-GG cells [8]: partially restore
IC50 [9]: 0.453 µM
FTase/GGTase [9]: 7.5
IC50 [10]: 3.38 µM
Reversal of rounded morphology of lovastatin-treated H-Ras-F cells [11]: reversion in morphology

3-Vinyl-7,11-dimethyldodeca-2(Z),6(E),10-trien-1-ol [3-vinyl Farnesol]
Effect on growth of H-Ras-F cells ([5]; concentration not given): complete inhibition of growth
Effect on HPAC cells at 100 nM ([6]; 100 nM): cytostasis
Viable HPAC cell count at 100 nM ([6]; 100 nM, seeded 2×10^5/ml, control well 2.2×10^6 cells): ~2×10^5 /well
Effect on HPAC cells at 500 nM ([6]; listed as 3-Vinylfarnesol): complete cytotoxicity
Effect on HPAC cells at 500 nM ([6]; listed as 3-vinylfarnesol): potently cytotoxic
